Drawing on patent publication US5523314A, “Compounds useful as hypoglycemic agents and for treating Alzheimer's disease” (priority 1994, dated 1996), this text covers response vs control in vivo, IC50 and inhibition for three compounds.

Structures can show the parent of a compound that is named as a salt.

For one test, the system named is blood glucose level. Briefly: Hypoglycemic activity in obese diabetic mice (Table 1). It is filed as in vivo, male viable yellow obese-diabetic mice. The following applies: Mus musculus, ip, 2 h, 50 mg/kg, intraperitoneal, 2 hrs; read-out: Percent of Initial Blood Glucose Level After 2 hrs. An outline of the steps: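 Male viable yellow obese-diabetic mice, six per group, dosed intraperitoneally once with compound in saline containing 2% Emulphor. Blood glucose measured by glucose oxidase before dosing and at 2 and 4 h. Values are the 2 h and 4 h glucose as % of pre-dose level.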
For the compound `O=C1NC(=S)SC1=Cc1ccc(-c2ccccc2)cc1` [Example 42, 5-[[(1,1'-biphenyl)-4-yl]methylene]-2-thioxo-4-thiazolidinone], the response vs control in vivo at 50 mg/kg is 87 ± 8%.
The same measure, in the same setting: for `CCOc1cc(C=C2SC(=S)NC2=O)ccc1OC` [Example 58, 5-[(3-ethoxy-4-methoxyphenyl)methylene]-2-thioxo-4-thiazolidinone] the value was 67 ± 2%.

The test is the same for the next values; noted with them: Mus musculus, ip, 2 h, read-out: Percent of Initial Blood Glucose Level After 2 hrs., 5 mg/kg, intraperitoneal, 2 hrs.
For `CCCCCOc1ccc(C=C2SC(=S)NC2=O)cc1OC` [Example 57, 5-[(3-methoxy-4-pentoxyphenyl)methylene]-2-thioxo-4-thiazolidinone sodium salt], the response vs control in vivo at 5 mg/kg worked out at 82 ± 6%.

Still in this test, the particulars now being: Mus musculus, ip, 2 h, read-out: Percent of Initial Blood Glucose Level After 2 hrs., 10 mg/kg, intraperitoneal, 2 hrs.
For the compound `CCCCCOc1ccc(C=C2SC(=S)NC2=O)cc1OC` [Example 57, 5-[(3-methoxy-4-pentoxyphenyl)methylene]-2-thioxo-4-thiazolidinone sodium salt], the response vs control in vivo at 10 mg/kg was determined as 95 ± 3%.

Still in this test, the particulars now being: Mus musculus, ip, 4 h, 50 mg/kg, intraperitoneal, 4 hrs; read-out: Percent of Initial Blood Glucose Level After 4 hrs.
As to `O=C1NC(=S)SC1=Cc1ccc(-c2ccccc2)cc1` [Example 42, 5-[[(1,1'-biphenyl)-4-yl]methylene]-2-thioxo-4-thiazolidinone], the response vs control in vivo at 50 mg/kg was determined as 70 ± 8%.
As for `CCOc1cc(C=C2SC(=S)NC2=O)ccc1OC` [Example 58, 5-[(3-ethoxy-4-methoxyphenyl)methylene]-2-thioxo-4-thiazolidinone], the response vs control in vivo at 50 mg/kg worked out at 75 ± 5%.

The same test, now with this note: Mus musculus, ip, 4 h, read-out: Percent of Initial Blood Glucose Level After 4 hrs., 5 mg/kg, intraperitoneal, 4 hrs.
For the compound `CCCCCOc1ccc(C=C2SC(=S)NC2=O)cc1OC` [Example 57, 5-[(3-methoxy-4-pentoxyphenyl)methylene]-2-thioxo-4-thiazolidinone sodium salt], the response vs control in vivo at 5 mg/kg stood at 68 ± 5%.

The same test, now with this note: Mus musculus, ip, 4 h, read-out: Percent of Initial Blood Glucose Level After 4 hrs., 10 mg/kg, intraperitoneal, 4 hrs.
Take `CCCCCOc1ccc(C=C2SC(=S)NC2=O)cc1OC` [Example 57, 5-[(3-methoxy-4-pentoxyphenyl)methylene]-2-thioxo-4-thiazolidinone sodium salt]: the response vs control in vivo at 10 mg/kg turned out to be 87 ± 6%.

A further test concerns blood glucose level. Briefly: Hypoglycemic activity in normal fed rats (Table 2). It is filed as in vivo, male Sprague Dawley rats. The settings on record: Rattus norvegicus, po, 3 h, read-out: Percent of Initial Blood Glucose Level After 3 hrs. Here is the method:
The procedure used in this test system is described below.
The desired dose level of each test formulation was administered to four rats by oral […] at the beginning of the experiment. Blood glucose levels were determined immediately before the first dose and at 3 and 5 hours thereafter by an enzymatic procedure employing glucose oxidase and peroxidase coupled with a chromogenic oxygen acceptor. A mean was taken of the 4 values obtained before the first dose and at the 3 and 5 hour intervals.
As for `CCCCCOc1ccc(C=C2SC(=S)NC2=O)cc1OC` [Example 57, 5-[(3-methoxy-4-pentoxyphenyl)methylene]-2-thioxo-4-thiazolidinone sodium salt], the response vs control in vivo at 200 mg/kg was 84%.

The same test, now with this note: Rattus norvegicus, po, 5 h, read-out: Percent of Initial Blood Glucose Level After 5 hrs.
With `CCCCCOc1ccc(C=C2SC(=S)NC2=O)cc1OC` [Example 57, 5-[(3-methoxy-4-pentoxyphenyl)methylene]-2-thioxo-4-thiazolidinone sodium salt], the response vs control in vivo at 200 mg/kg stood at 73%.

Staying with this test, now noted: Rattus norvegicus; 200 mg/kg, oral, 3 hrs; read-out: Percent of Initial Blood Glucose Level After 3 hrs.
For the compound `CCOc1cc(C=C2SC(=S)NC2=O)ccc1OC` [Example 58, 5-[(3-ethoxy-4-methoxyphenyl)methylene]-2-thioxo-4-thiazolidinone], the response vs control in vivo at 200 mg/kg worked out at 100%.

Still in this test, the particulars now being: Rattus norvegicus; 200 mg/kg, oral, 5 hrs; read-out: Percent of Initial Blood Glucose Level After 5 hrs.
Turning to `CCOc1cc(C=C2SC(=S)NC2=O)ccc1OC` [Example 58, 5-[(3-ethoxy-4-methoxyphenyl)methylene]-2-thioxo-4-thiazolidinone], the response vs control in vivo at 200 mg/kg is 100%.

Another test deals with T1, Human liver cathepsin D (Homo sapiens, UniProt P07339).
T1 construct: purchased Athens Research and Technology, Athens, Ga; host or cells: human liver
T1 sequence (P07339 169-412 limits assumed): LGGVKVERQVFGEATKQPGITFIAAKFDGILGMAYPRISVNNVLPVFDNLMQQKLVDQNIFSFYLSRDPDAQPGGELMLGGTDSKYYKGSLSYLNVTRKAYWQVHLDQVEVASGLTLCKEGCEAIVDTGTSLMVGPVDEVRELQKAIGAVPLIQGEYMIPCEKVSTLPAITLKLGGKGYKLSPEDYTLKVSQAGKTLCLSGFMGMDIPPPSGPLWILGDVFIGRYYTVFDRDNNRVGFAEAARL
T1 sequence (P07339 65-161 limits assumed): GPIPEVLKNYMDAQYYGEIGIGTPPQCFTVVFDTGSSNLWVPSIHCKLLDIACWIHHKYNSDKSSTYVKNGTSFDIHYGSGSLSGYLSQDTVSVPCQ
Description: Cathepsin D inhibition, fluorometric assay (Tables 5 and 6). It is filed as biochemical.
Details: not given
Here is the method: Human liver cathepsin D (Athens Research and Technology, Athens, Ga.) was diluted in assay buffer, 200 mM NaOAc, pH 4.5, 150 mM NaCl to 500 ng/mL and then 100 μL of this cathepsin D solution was added to each well of a 96 well plate with the exception of control wells which received just 100 μL of assay buffer. […] Blank and enzyme control wells each received 5 μL of the DMSO vehicle.
After incubation at 37° C. for 30 minutes, cathepsin D activity was terminated by the addition of 100 μL per well of 400 mU/mL microsomal leucine aminopeptidase (EC 3.4.11.2, Sigma, St. Louis, Mo.) in 1M Tris-HCl, pH 8.0.
Following a two hour incubation at 37° C., to allow the aminopeptidase to release the fluorophore, 7-amido-4-methylcoumarin (AMC) from the products of cathepsin D cleavage, the plates were again analyzed in the fluorometer. In order to check for potential false positives, i.e., inhibitors of microsomal leucine aminopeptidase, residual aminopeptidase activity was monitored directly in each well by the addition of 20 μL/well of 2.5 mM Leu-pNA (Bachem Biosciences, Philadelphia, Pa.) in 10% DMSO.
By IC50 is commonly meant the concentration that inhibits the measured activity by half. A high value points to weaker potency. On to `O=C1NC(=S)SC1=Cc1ccc(-c2ccccc2)cc1` [Example 42, 5-[[(1,1'-biphenyl)-4-yl]methylene]-2-thioxo-4-thiazolidinone], for which it took 1.7 µM to reach half-maximal inhibition (IC50).

Staying with this test, now noted: Compound Stock Concentration 4.15 μg/ml.
What is called inhibition is the relative decrease from the control value, in per cent. Higher therefore signals a strong effect. The compound `O=C1NC(=S)SC1=Cc1ccc(-c2ccccc2)cc1` [Example 42, 5-[[(1,1'-biphenyl)-4-yl]methylene]-2-thioxo-4-thiazolidinone] displayed an inhibition at 4.15 µg/mL (stock) of 78%.

The same test, now with this note: Compound Stock Concentration 10.0 μg/ml.
In turn, `O=C1NC(=S)SC1=Cc1ccc(-c2ccccc2)cc1` [Example 42, 5-[[(1,1'-biphenyl)-4-yl]methylene]-2-thioxo-4-thiazolidinone] displayed an inhibition at 10 µg/mL (stock) of 87.5%.

A further test relates to β-amyloid protein. Briefly: β-amyloid protein production inhibition in 293 751 SWE and CHO 751 SWE cells, ELISA (Table 7). It is filed as cell-based. The following applies: Compound Stock Concentration 0.31 μg/ml; normalized for cytotoxicity. Here is the method: Two cell lines (human kidney cell line 293 and Chinese hamster ovary cell line CHO) were stably transfected with the gene for APP751 containing the double mutation Lys-651-Met-652 to Asn-651-Leu-652 (APP-751 numbering) commonly called the Swedish mutation using the method described in Citron et al., Nature 360:672-674 (1992). The transfected cell lines were designated as 293 751 SWE and CHO 751 SWE, and were plated in Corning 96 well plates at 2.5×10^4 or 1×10^4 cells per well respectively in Dulbecco's minimal essential media (DMEM) plus 10% fetal bovine serum. […] These compound stocks were prepared by dissolving a sufficient quantity of the particular compound to be tested in DMSO such that various concentrations were obtained. After this pretreatment period, the conditioned media was removed and replaced with fresh conditioned media and the cells were incubated for an additional two hours.
After treatment, plates were centrifuged in a Beckman GPR at 1200 rpm for five minutes at room temperature to pellet cellular debris from the conditioned media. From each well, 100 μL of conditioned media were transferred into an ELISA plate precoated with antibody 266 [Seubert et al., Nature, 359:325-327 (1992)] and stored at 4° C. overnight prior to the completion of the ELISA assay the next day.
Cytotoxic effects of the compounds were measured by a modification of the method of Hansen et al., J. Immun. Meth. 119:203-210 (1989). To the cells remaining in the tissue culture plate, was added 25 μL of a 3-(4,5-dimethylthiazol-2-yl)-2,5-diphenyltetrazolium bromide (MTT) stock solution (5 mg/mL) to a final concentration of 1 mg/mL. Cells were incubated at 37° C. for one hour, and cellular activity was stopped by the addition of an equal volume of MTT lysis buffer (20% w/v sodium dodecylsulfate in 50% DMF, pH 4.7). Complete extraction was achieved by overnight shaking at room temperature. The difference in the OD562nm and the OD650nm was measured in a Molecular Devices UVmax microplate reader as an indicator of the cellular viability.
The results of the β-amyloid protein ELISA were fit to a standard curve and expressed as ng/mL β-amyloid protein peptide. In order to normalize for cytotoxicity, these β-amyloid protein results were divided by the cytotoxicity results and expressed as a percentage of the results from a drug-free control.
Consider `O=C1NC(=S)SC1=Cc1ccc(-c2ccccc2)cc1` [Example 42, 5-[[(1,1'-biphenyl)-4-yl]methylene]-2-thioxo-4-thiazolidinone], for which the inhibition at 0.31 µg/mL (stock) was found to be 8%.

The test is the same for the next values; noted with them: Compound Stock Concentration 0.62 μg/ml; normalized for cytotoxicity.
Turning to `O=C1NC(=S)SC1=Cc1ccc(-c2ccccc2)cc1` [Example 42, 5-[[(1,1'-biphenyl)-4-yl]methylene]-2-thioxo-4-thiazolidinone], the inhibition at 0.62 µg/mL (stock) is 11%.

The same test, now with this note: Compound Stock Concentration 1.25 μg/ml; normalized for cytotoxicity.
`O=C1NC(=S)SC1=Cc1ccc(-c2ccccc2)cc1` [Example 42, 5-[[(1,1'-biphenyl)-4-yl]methylene]-2-thioxo-4-thiazolidinone] showed an inhibition at 1.25 µg/mL (stock) of 14%.

Still in this test, the particulars now being: Compound Stock Concentration 2.5 μg/ml; normalized for cytotoxicity.
For the compound `O=C1NC(=S)SC1=Cc1ccc(-c2ccccc2)cc1` [Example 42, 5-[[(1,1'-biphenyl)-4-yl]methylene]-2-thioxo-4-thiazolidinone], the inhibition at 2.5 µg/mL (stock) turned out to be 16%.

The test is the same for the next values; noted with them: Compound Stock Concentration 5.0 μg/ml; normalized for cytotoxicity.
In turn, `O=C1NC(=S)SC1=Cc1ccc(-c2ccccc2)cc1` [Example 42, 5-[[(1,1'-biphenyl)-4-yl]methylene]-2-thioxo-4-thiazolidinone] gave an inhibition at 5 µg/mL (stock) of 35%.

The test is the same for the next values; noted with them: Compound Stock Concentration 10.0 μg/ml; normalized for cytotoxicity.
`O=C1NC(=S)SC1=Cc1ccc(-c2ccccc2)cc1` [Example 42, 5-[[(1,1'-biphenyl)-4-yl]methylene]-2-thioxo-4-thiazolidinone] registered an inhibition at 10 µg/mL (stock) of 51%.
